Data from PMC11597260 (Pharmaceutics, 2024).
“And” between values parts separate entries of the source, which are not always exact repeats. Equal values may be shown once. Read-outs that look alike come from different tables or passages of the source.

Tests used:
[1] = Stability of spiked rat plasma QC samples under storage conditions; assay type: in vitro ADME; details: for Stability, Accuracy (%): rat plasma, mean ± SD, n = 3; for stability of rat plasma samples under storage conditions: room temperature 4 h, 4 °C 8 h, −40 °C 7 days, three freeze–thaw cycles
[2] = Pharmacokinetic study in rats after oral and intratracheal administration of curcumin (plasma, LC-MS/MS); assay type: in vivo, Sprague-Dawley rats
Description: This preparation was then diluted with saline to obtain the desired concentrations for animal experiments.
Twelve male SD rats were randomly divided into two groups with six rats each, one for oral administration and the other for inhalation administration. […] Blood samples of approximately 200 μL were collected via intravenous routes at pre-determined time points: before administration and at 5, 15, 30, and 45 min, and 1, 2, 4, 6, and 8 h post-administration. The blood samples were immediately placed in heparinized EP tubes and kept on ice. […] The specific method of intratracheal administration is depicted in Figure 1, and details of the administration process are provided in the Supplementary Materials (Supplementary Figure S2). Blood samples of about 200 μL were collected at time points before administration and at 2, 5, 15, and 30 min, and 1, 2, 4, 6, 8, 12, and 24 h post-administration, also placed in heparinized EP tubes and kept on ice. The whole blood samples were centrifuged at 4 °C at 5000× g for 10 min within 30 min of collection. The plasma was then separated, aliquoted, and stored at −40 °C until analysis.
The major pharmacokinetic parameters including elimination half-life (t1/2), time to reach peak concentration (Tmax), peak concentration (Cmax), area under the curve (AUC), and mean residence time (MRT) were calculated using Phoenix WinNonlin software (Version 8.2, Certara, Radnor, PA, USA). A non-compartmental model was employed for these calculations, which is suitable for analyzing drug concentration data over time without assuming a specific compartmental structure. Graph Prism 8 was utilized to create graphs and plots that illustrate the pharmacokinetic behavior of the compounds of interest. Statistical analysis was performed using IBM SPSS Statistics 26 to conduct a t-test on the dose-normalized AUC(0−t) values from the two different administration groups. […] The results were considered statistically significant at a p-value less than 0.05, indicating a difference between the groups.

Caco-2 cell model = details: cited from earlier work
[3] = oral curcumin in rats; cited from earlier work
[4] = 6 ng/mL, freeze-thaw three cycles
[5] = 6 ng/mL, room temperature for 4 h
[6] = 60 ng/mL, freeze-thaw three cycles
[7] = 60 ng/mL, room temperature for 4 h
[8] = 320 ng/mL, freeze-thaw three cycles
[9] = 320 ng/mL, room temperature for 4 h
[10] = rat plasma, i.t. curcumin 10 mg/kg (27.17 μmol/kg), mean ± SD, n = 6
[11] = rat plasma, i.t. curcumin 10 mg/kg, dose-normalized to oral dose (inhalation/0.5)
[12] = rat plasma, p.o. curcumin 20 mg/kg (54.34 μmol/kg), mean ± SD, n = 6
[13] = male, Sprague-Dawley, rat, plasma, inhaled or intranasal, 10 mg/kg

| Stability, Accuracy (%) ([1]; 6 ng/mL, 4 ℃ for 8 h) | Stability, Accuracy (%) ([1]; 6 ng/mL, 40 ℃ for 7 d) | Stability, Accuracy (%) [1, 4] | Stability, Accuracy (%) [1, 5] | Stability, Accuracy (%) ([1]; 60 ng/mL, 4 ℃ for 8 h) | Stability, Accuracy (%) ([1]; 60 ng/mL, 40 ℃ for 7 d) | Stability, Accuracy (%) [1, 6] | Stability, Accuracy (%) [1, 7] | Stability, Accuracy (%) ([1]; 320 ng/mL, 4 ℃ for 8 h) | Stability, Accuracy (%) ([1]; 320 ng/mL, 40 ℃ for 7 d) | Stability, Accuracy (%) [1, 8] | Stability, Accuracy (%) [1, 9] | stability of rat plasma samples under storage conditions [1] | AUC(0–t) [2, 10] | AUC(0–∞) [2, 10] | Cmax [2, 10] | MRT(0–t) [2, 10] | Tmax [2, 10] | t1/2 [2, 10] | AUC(0–t)/0.5 [2, 11] | SMILES | also measured |
| --- | --- | --- | --- | --- | --- | --- | --- | --- | --- | --- | --- | --- | --- | --- | --- | --- | --- | --- | --- | --- | --- |
| 88.10±4.59% | 104.10±7.03% | 89.23±3.79% | 90.20±4.16% | 90.43±2.97% | 87.13±2.10% | 87.93±2.81% | 95.53±2.01% | 93.60±2.52% | 88.93±0.99% | 87.87±2.32% | 95.73±2.23% | stable | 0.8863 ± 0.1783 µM·h | 0.9189 ± 0.1678 µM·h | 521 ± 203 nM | 4.33 ± 1.69 h | 0.25 ± 0.00 h | 3.10 ± 0.95 h | 1.772 ± 0.3566 µM·h | COc1cc(/C=C/C(=O)CC(=O)/C=C/c2ccc(O[C@@H]3O[C@H](C(=O)O)[C@@H](O)[C@H](O)[C@H]3O)c(OC)c2)ccc1O [COG] | exposure relative to COS ([2]; rat plasma, oral dosing of 20 mg/kg curcumin): 30–40 times; AUC(0–t) [2, 12]: 1.68 ± 0.2441 µM·h; AUC(0–∞) [2, 12]: 1.73 ± 0.2565 µM·h; Cmax [2, 12]: 830 ± 158 nM; MRT(0–t) [2, 12]: 2.54 ± 0.29 h; Tmax [2, 12]: 0.54 ± 0.71 h; t1/2 [2, 12]: 1.74 ± 0.57 h |
| 100.63±2.40% | 90.73±1.36% | 93.73±4.97% | 99.67±4.83% | 93.27±2.31% | 94.53±0.40% | 93.23±0.96% | 96.63±1.39% | 99.23±1.50% | 92.43±5.58% | 93.80±0.46% | 100.77±0.65% | stable | 1.377 ± 0.6043 µM·h | 1.444 ± 0.6249 µM·h | 416 ± 138 nM | 5.14 ± 1.03 h | 0.38 ± 0.14 h | 5.02 ± 1.27 h | 2.754 ± 1.208 µM·h | COc1cc(/C=C/C(=O)CC(=O)/C=C/c2ccc(OS(=O)(=O)O)c(OC)c2)ccc1O [COS] | exposure, AUC(0–t)/0.5 intratracheal relative to AUC(0–t) oral ([2]; rat plasma, i.t. 10 mg/kg dose-normalized vs p.o. 20 mg/kg): ~50 fold; AUC(0–t) [2, 12]: 0.04978 ± 0.02714 µM·h; AUC(0–∞) [2, 12]: 0.0577 ± 0.02778 µM·h; Cmax [2, 12]: 23.4 ± 9.4 nM; MRT(0–t) [2, 12]: 2.37 ± 0.98 h; Tmax [2, 12]: 1.13 ± 0.96 h; t1/2 [2, 12]: 1.11 ± 0.87 h |
| 96.00±2.57% | 105.13±4.11% | 102.33±7.46% | 92.53±2.91% | 97.73±0.83% | 97.40±0.36% | 95.20±2.19% | 98.57±2.22% | 102.67±0.06% | 93.87±3.21% | 90.10±4.20% | 103.93±1.07% | – | – | – | – | – | – | – | – | COc1cc(/C=C/C(=O)CC(=O)/C=C/c2ccc(O)c(OC)c2)ccc1O [CUR, Curcumin] | Papp (Caco-2 cell model): 3.18 ± 1.08 × 10^−6 cm/s; bioavailability [3]: less than 1%; AUC(0-inf) [2, 13]: 1.38 ± 0.37 µM·h; Cmax [2, 13]: 2880 ± 742 nM; half-life [2, 13]: 3.73 ± 1.03 h; AUC(0-t) ([2]; male, Sprague-Dawley, rat, plasma, inhaled or intranasal, 10 mg/kg, rat plasma, i.t. curcumin 10 mg/kg (27.17 μmol/kg), mean ± SD, n = 6, read-out: AUC(0–t)): 1.33 ± 0.374 µM·h; AUC(0-t) ([2]; male, Sprague-Dawley, rat, plasma, inhaled or intranasal, 10 mg/kg, rat plasma, i.t. curcumin 10 mg/kg, dose-normalized to oral dose (inhalation/0.5), read-out: AUC(0–t)/0.5): 2.65 ± 0.749 µM·h; MRT last ([2]; male, Sprague-Dawley, rat, plasma, inhaled or intranasal, 10 mg/kg, read-out: MRT(0–t)): 2.01 ± 0.78 h; Tmax ([2]; male, Sprague-Dawley, rat, plasma, inhaled or intranasal, 10 mg/kg, read-out: Tmax): 0.05 ± 0.03 h; AUC(0-t) ([2]; male, Sprague-Dawley, rat, plasma, po, 20 mg/kg, rat plasma, p.o. curcumin 20 mg/kg, calculated using the lower limit of quantification over 6 h, read-out: AUC(0–t)): < 0.0326 µM·h; plasma levels of the parent compound (below lower limit of quantification) ([2]; rat plasma, oral dosing of 20 mg/kg curcumin, 20 mg/kg): < 2 ng/mL and < 5.434 nM |
